Here are results for 1 molecule from patent publication US20150104392A1, “COMPOSITIONS, BIOMARKERS AND THEIR USE IN THE TREATMENT OF CANCER” (Aptose Biosciences Inc., priority 2013, published 2015).

In series [1] the test system is HL-60. The experiment in a line: Cell cycle analysis, propidium iodide flow cytometry. The format is cell-based. The note with it: 0.5 μM, 16 hours. How it is done:
(§1) THP1 and HL-60 AML cell lines were treated with DMSO (vehicle control) or 0.5 μM LOR-253 for 16 hours. Cells were washed once in PBS+1% FCS and fixed using ice cold 70% ethanol overnight. Fixed cells were washed twice, resuspended in PI/RNaseA solution, containing 20 μg/mL propidium iodide and 250 μg/mL RNaseA, and stained for 30 minutes at 37° C. Stained cells were analyzed using a BD FACSCalibur flow cytometer.

For series [2], the system named is THP1. Described as above. The class given is cell-based. The note with it: 0.5 μM, 16 hours. How it is done: as §1
In series [3] the test system is HL-60. In words: KLF4/p21 induction, quantitative RT-PCR. The format is cell-based, human. The note with it: 0.5 μM, 16 hours. The method, then: (§2) To determine if KLF4 and/or p21 expressions are induced by LOR-253, AML cells (THP1, HL-60) were treated with DMSO (vehicle control) or 0.5 μM LOR-253 for 16 hours. Total RNA was extracted using the TRIzol Plus RNA Purification kit (Ambion, Life Technologies), according to the manufacturer's instructions. First strand cDNA was synthesized from 1-2 ug total RNA using random hexamer primers (Invitrogen) and the SuperScript II Reverse Transcriptase kit (Invitrogen). Quantitative RT-PCR was performed in the ABI Prism 7000 Sequence Detection System using cDNAs and human TaqMan Gene Expression Assay primer/probe sets for Krüppel-like factor 4 (KLF4), cyclin-dependent kinase inhibitor 1A (p21) and the ABI TaqMan Universal PCR master mix protocol. Gene expression was normalized with β-actin gene expression in the same sample, and fold changes in KLF4 or p21 were expressed relative to the corresponding expression level in the DMSO treated samples using the comparative CT method.

Series [4] concerns THP1. The experiment in a line: KLF4/p21 induction, quantitative RT-PCR. The format is cell-based, human. The note with it: 0.5 μM, 16 hours. How it is done: as §2
Series [5] relates to HL-60. In words: Caspase 3 activity, EnzChek Caspase-3 Assay Kit. Particulars: 0.5 μM, 48 hours. The class given is cell-based. The method, then:
(§3) THP1 and HL-60 cells were treated with DMSO (vehicle control) or 0.5 μM LOR-253 for 48 hours. Cell lysates were collected using a 1% Triton-X100 lysis. Caspase 3 activity was measured using EnzChek Caspase-3 Assay Kit #1 (Life Technologies) with 5 μg of cell lysastes according to manufacturer's protocol.

The test system of series [6] is THP1. The experiment in a line: Caspase 3 activity, EnzChek Caspase-3 Assay Kit. The class given is cell-based. The note with it: 0.5 μM, 48 hours. The method, then:
as §3

The next series has as its target hERG (Homo sapiens, UniProt Q12809). In words: hERG tail current density. In general terms: Block of hERG is tested as a sign of cardiac risk.
Another series concerns THP-1 cells. In words: FITC-Annexin V / propidium iodide flow cytometry (apoptosis). The note with it: 16 hours. The format is cell-based. How it is done: THP-1 cells were treated with DMSO, 0.5 or 1 uM of LOR-253 for 16 hours. Cells were washed twice with cold PBS and resuspended Annexin V binding buffer. 1×10^5 cells in 100 μL were stained with FITC-Annexin V and propidium iodide, and incubated for 15 minutes at room temperature. After staining, 400 ul of binding buffer was added and the cells were kept on ice until analyzed on a BD FACSCanto flow cytometer.

For a further series, the system named is cancer cell lines. The experiment in a line: XTT antiproliferative assay, panel of cancer cell lines (FIG. 3). The format is cell-based. How it is done:
FIG. 3 is a graphical representation of the effect of LOR-253 on proliferation of a number of cancer cell lines in vitro. Cells of various cancer cell lines were incubated with LOR-253 as described in the Examples, and the […] concentrations of various cell lines for 50% of maximal inhibition of cell proliferation (GI50) by LOR-253 were determined and shown in the figure.
Antiproliferative activity of LOR-253 was determined by XTT assay as follows. Adherent cells (2×10^3/well) in 100 μL of growth medium were seeded in 96-well cell culture plates and incubated overnight at 37° C. The medium was removed and replaced with a total volume of 100 μL growth medium containing LOR-253 (or 0.1% DMSO vehicle control), as described in the respective experiments. […] After incubation of the cells at 37° C. for 5 days, cell viability was quantitated with the use of sodium 3′-[1-(phenylamino-carbonyl)-3,4-tetrazolium}-bis(4-methoxy-6-nitro)benzene sulfonic acid hydrate (XTT) colorimetric assay (Roche). […] The plates were further incubated at 37° C. for 4 h, and the absorbance of each well was measured at 490 nm with a multiwell spectrophotometer (Bio-Tek Instruments Inc.). The data were adjusted relative to the blank and expressed as a percentage of cell growth compared with the vehicle control. […]

Series [7] can be described thus: GLP blood compatibility studies.
The nature of series [8]: Repeat-dose toxicity study. The class given is in vivo. The note with it: dogs, highest dose tested.
The test system of the next series is H226 xenograft. The experiment in a line: H226 xenograft model, dose and schedule. The format is in vivo, mice. The note with it: groups 2, 3 and 4: 10 mg/kg-iv, schedules 3T-12B-3T, 2T-5B-2T, 3T-5B-3T, 2 cycles.
Another series deals with THP1 cells. The experiment in a line: BAX/BCL2 expression, quantitative RT-PCR. The class given is cell-based, human. Particulars: 0.5 μM, 48 hours. The method, then: as §2, with “THP1” for “To determine if KLF4 and/or p21 expressions are induced by LOR-253, AML”, “cells” for “cells (THP1, HL-60)”, “48” for “16”, “BCL2-associated X protein (BAX), B-cell CLL/Lymphoma 2 (BCL2)” for “Krüppel-like factor 4 (KLF4), cyclin-dependent kinase inhibitor 1A (p21)”, “BAX” for “KLF4”, “BCL2” for “p21”

hERG, sequence (Q12809 whole entry): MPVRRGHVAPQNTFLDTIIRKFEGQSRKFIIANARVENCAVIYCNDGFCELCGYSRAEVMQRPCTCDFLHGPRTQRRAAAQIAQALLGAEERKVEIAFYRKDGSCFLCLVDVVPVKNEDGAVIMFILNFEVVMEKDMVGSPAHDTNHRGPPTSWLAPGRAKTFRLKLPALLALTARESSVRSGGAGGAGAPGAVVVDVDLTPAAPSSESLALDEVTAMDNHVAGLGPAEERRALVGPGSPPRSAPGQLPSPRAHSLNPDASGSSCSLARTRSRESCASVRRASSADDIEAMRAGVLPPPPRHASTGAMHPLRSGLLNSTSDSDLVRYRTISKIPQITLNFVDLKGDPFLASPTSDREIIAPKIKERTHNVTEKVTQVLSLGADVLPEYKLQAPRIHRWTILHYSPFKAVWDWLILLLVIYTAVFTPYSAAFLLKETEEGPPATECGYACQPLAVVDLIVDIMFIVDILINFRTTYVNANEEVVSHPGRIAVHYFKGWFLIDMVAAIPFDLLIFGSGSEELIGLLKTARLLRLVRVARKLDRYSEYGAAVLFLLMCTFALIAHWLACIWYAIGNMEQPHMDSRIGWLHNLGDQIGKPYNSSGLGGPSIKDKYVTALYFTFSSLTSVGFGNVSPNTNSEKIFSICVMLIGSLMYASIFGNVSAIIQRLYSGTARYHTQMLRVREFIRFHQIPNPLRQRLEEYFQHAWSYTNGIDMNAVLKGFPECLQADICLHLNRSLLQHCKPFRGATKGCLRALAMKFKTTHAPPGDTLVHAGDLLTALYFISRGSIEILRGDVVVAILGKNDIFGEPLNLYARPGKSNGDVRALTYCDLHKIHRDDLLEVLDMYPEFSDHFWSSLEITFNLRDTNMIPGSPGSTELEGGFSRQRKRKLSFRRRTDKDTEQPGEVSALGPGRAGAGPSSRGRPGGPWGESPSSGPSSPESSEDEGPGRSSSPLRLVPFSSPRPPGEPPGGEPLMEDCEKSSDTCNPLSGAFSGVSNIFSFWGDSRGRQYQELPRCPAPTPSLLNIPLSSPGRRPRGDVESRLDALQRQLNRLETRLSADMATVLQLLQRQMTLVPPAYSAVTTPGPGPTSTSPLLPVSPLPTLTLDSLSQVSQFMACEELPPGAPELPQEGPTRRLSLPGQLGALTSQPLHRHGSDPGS

For the molecule `Cc1[nH]c2ccc(F)cc2c1-c1nc2c3cccnc3c3ncccc3c2[nH]1` [LOR-253], the cell cycle effect result in the series on HL-60 [1] and with THP1 [2] was “G1/S cell cycle arrest” each time. Moreover, the “KLF4 expression (fold change vs DMSO)” value in the series on HL-60 [3] and with THP1 [4] was “increased expression” in each case. In addition, the “p21 expression (fold change vs DMSO)” value with HL-60 [3] and with THP1 [4] was “increased expression” each time. The “Caspase 3 activity” value with HL-60 [5] and in the series on THP1 [6] was “elevated Caspase 3 activity” each time. Also, the “inhibition of hERG tail current density” value on hERG is listed as “no significant inhibition”. For the same molecule, the “Annexin V staining” value in the series with THP-1 cells (0.5 or 1 uM) is recorded as “elevated Annexin V staining”. For the same molecule, in the series on THP-1 cells (increasing concentration (0.5 to 1 uM)), the “early apoptotic population (Q3: Annexin V+/PI−)” value is “increase in the early apoptotic population”. In addition, the “sensitivity of cell lines to LOR-253” value in the series with cancer cell lines (cell lines of lung, bladder, colon, prostate cancer, melanoma and breast cancer) is recorded as “less sensitive”; with cancer cell lines (leukemia/lymphoma incl. AML cell lines (HL-60, MV 411, THP-1, HEL92.1.7, CCRF-CEM, MOLT-4, Jurkat, K-562, Ramos, Raji)) it was “most sensitive”. Further, in [7], the “blood compatibility of IV formulation” value is “confirmed the suitability of IV formulation”. Further, the cardiovascular effects result in series [8] was “no treatment-related cardiovascular effects”. In the series on H226 xenograft, the “tumor size, H226 xenograft” value is “effectively treated”. Besides, the “BAX expression (fold change vs DMSO)” value in the series on THP1 cells is listed as “Elevation of BAX”. The “BCL2 expression (fold change vs DMSO)” value in the series with THP1 cells is recorded as “repression of BCL2”.
